The record followed here is publication PMC6726534 (Biotechnology and bioengineering, 2019).

Holding throughout (type): cell-based
One series deals with E. coli JJ2489. The following applies: JJ2489, 1 h.
A further series relates to E. coli PUTI 379. The note with it: PUTI 379, 1 h.
In another series the test system is E. coli FVEC 638. The following applies: FVEC 638, 1 h.
Series [1] deals with Salmonella enterica serovar Newport. The note with it: 1 h.
For series [2], the system named is Salmonella Infantis #129 B. The following applies: 1 h.
The subject of series [3] is Salmonella enterica serovar Typhimurium ATCC SL1344. The following applies: ATCC SL1344, 1 h.
Series [4] relates to Salmonella enterica serovar Tennessee. The following applies: 1 h.
Another series relates to E. coli JW0013. The following applies: JW0013, 1 h.
Another series has as its system E. coli FVEC 964. The note with it: FVEC 964, 1 h.
Series [5] deals with Salmonella enterica serovar Enteritidis MH91989. The note with it: serovar Enteritidis MH91989, 1 h.
A further series concerns E. coli J2210. The note with it: J2210, 1 h.
Series [6] concerns A431 human epidermoid carcinoma cells. The experiment in a line: Cytotoxicity assay. The note with it: 10 μmol/L peptide, 24 h, MTT assay, duplicate, normalized to PBS. (In general: Tetrazolium assays rely on reduction of a dye to a coloured formazan, in cell work by metabolically active cells.)
The test system of series [7] is MDA-MB-231 human breast adenocarcinoma cells. The experiment in a line: Cytotoxicity assay. The following applies: 10 μmol/L peptide, 24 h, MTT assay, duplicate, normalized to PBS.

In brackets after ≈: the same amount, converted by molar mass. Where a SMILES comes first, the peptide text is derived from it.

Broadly, the MIC is the smallest concentration in the dilution series that meets the test's criterion for growth inhibition.

Consider `CC(C)C[C@H](NC(=O)[C@H](CCCNC(=N)N)NC(=O)[C@@H]1CCCN1C(=O)[C@H](Cc1c[nH]cn1)NC(=O)[C@@H]1CCCN1C(=O)[C@@H]1CCCN1C(=O)[C@H](CCCNC(=N)N)NC(=O)[C@@H]1CCCN1C(=O)[C@H](CCC(N)=O)NC(=O)[C@@H]1CCCN1C(=O)[C@H](CCCNC(=N)N)NC(=O)[C@H](Cc1ccc(O)cc1)NC(=O)[C@@H](NC(=O)[C@@H]1CCCN1C(=O)[C@H](CCCCN)NC(=O)[C@H](CC(N)=O)NC(=O)[C@H](CC(N)=O)NC(=O)CN)C(C)C)C(=O)O` [Api_R4K/I8R] (H-GNNKPVYRPQPRPPHPRL-OH), for which the MIC amounted to 0.034 ± 0.017 µM (≈ 0.0722 µg/mL) against E. coli JJ2489; 0.048 ± 0.011 µM (≈ 0.102 µg/mL) against E. coli PUTI 379; 0.048 ± 0.011 µM (≈ 0.102 µg/mL) in the series on E. coli FVEC 638; 0.017 ± 0.009 µM (≈ 0.0361 µg/mL) in series [1]; 0.024 ± 0.006 µM (≈ 0.051 µg/mL) in series [2]; 0.034 ± 0.017 µM (≈ 0.0722 µg/mL) in series [3]. Also, the MIC in [4] was found to be 0.024 ± 0.006 µM (≈ 0.051 µg/mL); against E. coli JW0013, 0.012 ± 0.003 µM (≈ 0.0255 µg/mL); against E. coli FVEC 964, 0.048 ± 0.011 µM (≈ 0.102 µg/mL); in [5] it was 0.031 ± 0.014 µM (≈ 0.0658 µg/mL); with E. coli J2210, 0.034 ± 0.017 µM (≈ 0.0722 µg/mL).

Turning to `CC[C@H](C)[C@H](NC(=O)[C@H](Cc1ccc(O)cc1)NC(=O)[C@@H](NC(=O)[C@@H]1CCCN1C(=O)[C@H](CCCNC(=N)N)NC(=O)[C@H](CC(N)=O)NC(=O)[C@H](CC(N)=O)NC(=O)CN)C(C)C)C(=O)N1CCC[C@H]1C(=O)N[C@@H](CCC(N)=O)C(=O)N1CCC[C@H]1C(=O)N[C@@H](CCCNC(=N)N)C(=O)N1CCC[C@H]1C(=O)N1CCC[C@H]1C(=O)N[C@@H](Cc1c[nH]cn1)C(=O)N1CCC[C@H]1C(=O)N[C@@H](CCCNC(=N)N)C(=O)N[C@@H](CC(C)C)C(=O)O` [Api_WT, reference compound] (H-GNNRPVYIPQPRPPHPRL-OH), the MIC against E. coli JJ2489 is 0.031 ± 0.014 µM (≈ 0.0654 µg/mL); against E. coli PUTI 379, 0.048 ± 0.011 µM (≈ 0.101 µg/mL); against E. coli FVEC 638, 0.048 ± 0.011 µM (≈ 0.101 µg/mL); in series [1], 0.031 ± 0.014 µM (≈ 0.0654 µg/mL); in [2], 0.048 ± 0.011 µM (≈ 0.101 µg/mL); in series [3], 0.048 ± 0.011 µM (≈ 0.101 µg/mL). The MIC is 0.048 ± 0.011 µM (≈ 0.101 µg/mL) in [4]; 0.024 ± 0.006 µM (≈ 0.0506 µg/mL) against E. coli JW0013; 0.048 ± 0.011 µM (≈ 0.101 µg/mL) in the series with E. coli FVEC 964; 0.048 ± 0.011 µM (≈ 0.101 µg/mL) in series [5]; 0.048 ± 0.011 µM (≈ 0.101 µg/mL) against E. coli J2210.

For the compound `CC[C@H](C)[C@H](NC(=O)[C@@H]1CCCN1C(=O)[C@H](CCCCN)NC(=O)[C@@H]1CCCN1C(=O)[C@@H]1CCCN1C(=O)[C@@H](NC(=O)[C@@H]1CCCN1C(=O)[C@H](CCCNC(=N)N)NC(=O)[C@@H]1CCCN1C(=O)[C@H](CCCNC(=N)N)NC(=O)[C@H](Cc1ccc(O)cc1)NC(=O)[C@H](CO)NC(=O)CNC(=O)[C@H](CCCCN)NC(=O)[C@H](CC(=O)O)NC(=O)[C@@H](N)C(C)C)[C@@H](C)O)C(=O)N[C@@H](Cc1ccc(O)cc1)C(=O)N[C@@H](CC(N)=O)C(=O)N[C@@H](CCCNC(=N)N)C(=O)N[C@@H](CC(N)=O)C(=O)O` [Pyr_L7R/R14K] (H-VDKGSYRPRPTPPKPIYNRN-OH), the “toxicity to A431 cells” value in [6] is listed as “no toxicity”. In addition, in series [7], the “toxicity towards MDA-MB-231” value was “None of these PrAMPs exhibited any toxicity”.

Turning to `CC[C@H](C)[C@H](NC(=O)[C@@H]1CCCN1C(=O)[C@H](CCCNC(=N)N)NC(=O)[C@@H]1CCCN1C(=O)[C@@H]1CCCN1C(=O)[C@@H](NC(=O)[C@@H]1CCCN1C(=O)[C@H](CCCNC(=N)N)NC(=O)[C@@H]1CCCN1C(=O)[C@H](CC(C)C)NC(=O)[C@H](Cc1ccc(O)cc1)NC(=O)[C@H](CO)NC(=O)CNC(=O)[C@H](CCCCN)NC(=O)[C@H](CC(=O)O)NC(=O)[C@@H](N)C(C)C)[C@@H](C)O)C(=O)N[C@@H](Cc1ccc(O)cc1)C(=O)N[C@@H](CC(N)=O)C(=O)N[C@@H](CCCNC(=N)N)C(=O)N[C@@H](CC(N)=O)C(=O)O` [Pyr_WT, reference compound] (H-VDKGSYLPRPTPPRPIYNRN-OH), the “toxicity to A431 cells” value in series [6] was “no toxicity”. Besides, the “toxicity towards MDA-MB-231” value in series [7] is “None of these PrAMPs exhibited any toxicity”.
